The target of assay [1] is T1, MAGL (Homo sapiens, UniProt Q99685).
T1 sequence (Q99685 1-303): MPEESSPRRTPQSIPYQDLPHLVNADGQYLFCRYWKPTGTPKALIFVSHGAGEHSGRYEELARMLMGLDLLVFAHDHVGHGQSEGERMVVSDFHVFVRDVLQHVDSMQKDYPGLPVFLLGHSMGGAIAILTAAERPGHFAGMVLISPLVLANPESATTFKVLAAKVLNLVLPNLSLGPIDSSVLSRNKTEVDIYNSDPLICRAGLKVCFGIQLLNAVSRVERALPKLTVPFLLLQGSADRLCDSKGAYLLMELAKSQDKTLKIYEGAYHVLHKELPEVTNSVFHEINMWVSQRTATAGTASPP
The experiment in a line: In vitro competitive activity-based protein profiling, MAGL, human. The following applies: for inhibition at 1 µM: read-out: MAGL % inh. 1 μM (human).

The target in assay [2] is T2, FAAH (Homo sapiens, UniProt O00519).
T2 sequence (O00519 1-579): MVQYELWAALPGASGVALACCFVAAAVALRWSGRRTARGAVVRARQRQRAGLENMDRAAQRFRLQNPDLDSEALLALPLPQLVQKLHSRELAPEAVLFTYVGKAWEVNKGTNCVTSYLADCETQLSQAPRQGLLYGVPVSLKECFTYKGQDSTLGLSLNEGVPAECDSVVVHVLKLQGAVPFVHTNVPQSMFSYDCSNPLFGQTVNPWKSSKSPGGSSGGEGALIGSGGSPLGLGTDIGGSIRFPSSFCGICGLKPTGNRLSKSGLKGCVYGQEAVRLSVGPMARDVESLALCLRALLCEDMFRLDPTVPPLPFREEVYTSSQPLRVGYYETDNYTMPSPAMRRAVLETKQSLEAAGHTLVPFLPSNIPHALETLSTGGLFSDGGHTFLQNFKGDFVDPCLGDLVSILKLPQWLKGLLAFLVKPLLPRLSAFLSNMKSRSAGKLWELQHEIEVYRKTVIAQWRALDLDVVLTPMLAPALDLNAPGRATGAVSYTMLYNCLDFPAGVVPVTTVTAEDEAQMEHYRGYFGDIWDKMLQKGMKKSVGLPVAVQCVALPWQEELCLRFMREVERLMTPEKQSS
The experiment in a line: In vitro competitive activity-based protein profiling, FAAH, human. The following applies: for inhibition at 1 µM: read-out: FAAH % inh. 1 μM (human).

Assay [3] addresses T3, MAGL (Mus musculus, UniProt O35678).
T3 sequence (O35678 1-303): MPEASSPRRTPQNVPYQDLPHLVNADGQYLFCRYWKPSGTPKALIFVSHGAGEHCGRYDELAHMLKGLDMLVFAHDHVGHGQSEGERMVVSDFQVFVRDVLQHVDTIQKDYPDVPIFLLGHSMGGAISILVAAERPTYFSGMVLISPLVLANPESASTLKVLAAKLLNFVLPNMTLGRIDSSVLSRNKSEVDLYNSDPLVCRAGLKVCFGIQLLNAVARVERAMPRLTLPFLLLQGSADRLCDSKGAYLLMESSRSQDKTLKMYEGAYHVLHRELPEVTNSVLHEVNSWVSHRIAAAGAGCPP
In words: In vitro competitive activity-based protein profiling, MAGL, mouse. To be noted: read-out: MAGL % inh. 1 μM (mouse).

The target in assay [4] is T4, FAAH (Mus musculus, UniProt O08914).
T4 sequence (O08914 1-579): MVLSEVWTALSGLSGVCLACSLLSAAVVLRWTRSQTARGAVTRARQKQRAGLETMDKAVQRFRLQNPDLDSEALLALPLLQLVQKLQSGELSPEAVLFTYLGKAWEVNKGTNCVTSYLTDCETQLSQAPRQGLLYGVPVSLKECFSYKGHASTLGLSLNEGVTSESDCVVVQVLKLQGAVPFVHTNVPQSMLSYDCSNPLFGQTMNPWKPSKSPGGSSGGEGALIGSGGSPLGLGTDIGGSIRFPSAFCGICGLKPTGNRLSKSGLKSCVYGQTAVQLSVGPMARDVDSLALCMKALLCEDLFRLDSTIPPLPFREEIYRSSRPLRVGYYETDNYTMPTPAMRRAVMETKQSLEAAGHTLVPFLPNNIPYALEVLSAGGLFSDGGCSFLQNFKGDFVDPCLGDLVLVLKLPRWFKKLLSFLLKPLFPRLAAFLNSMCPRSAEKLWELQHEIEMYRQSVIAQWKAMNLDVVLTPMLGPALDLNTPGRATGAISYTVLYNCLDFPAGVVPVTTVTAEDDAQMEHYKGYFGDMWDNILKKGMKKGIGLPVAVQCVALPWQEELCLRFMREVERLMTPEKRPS
In words: In vitro competitive activity-based protein profiling, FAAH, mouse. The following applies: read-out: FAAH % inh. 1 μM (mouse).

Some results are limits rather than exact numbers.

Broadly, the IC50 is the point on the concentration scale where inhibition reaches its midpoint. A higher IC50 goes with weaker potency.

On to `Cc1ccc(CN2CCN(C(=O)n3ccc(C(=O)O)n3)CC2)c(-c2nnco2)c1` [Example 66, 1-(4-(4-methyl-2-(1,3,4-oxadiazol-2-yl)benzyl)piperazine-1-carbonyl)-1H-pyrazole-3-carboxylic acid], for which the inhibition at 1 µM was over 75% on MAGL [1], 0 to 25% on FAAH [2], over 75% on MAGL [3] and 0 to 25% on FAAH [4].
For `Cc1cc(CN2CCC3(CCN(C(=O)n4ccc(C(=O)O)n4)CC3)C2)ccc1C(F)(F)F` [Example 155, 1-(2-(3-methyl-4-(trifluoromethyl)benzyl)-2,8-diazaspiro[4.5]decane-8-carbonyl)-1H-pyrazole-3-carboxylic acid], the figures for the IC50 on MAGL [1] and at FAAH [2] were 0.1 to 1 µM and 1 to 10 µM, respectively. In addition, the inhibition at 1 µM at MAGL [1] was over 75%; on FAAH [2] it was 0 to 25%; on MAGL [3], over 75%; on FAAH [4], 0 to 25%.
As for `O=C(O)c1ccn(C(=O)N2C[C@H]3C[C@H](OCc4cc(F)cc(Cl)c4)C[C@H]3C2)n1` [Example 53, 1-(trans-5-((3-chloro-5-fluorobenzyl)oxy)octahydrocyclopenta [c]pyrrole-2-carbonyl)-1H-pyrazole-3-carboxylic acid], the inhibition at 1 µM on MAGL [1], on FAAH [2], at MAGL [3] and at FAAH [4] was over 75% throughout. The compound also gave an IC50 at FAAH [2] of 0.1 to 1 µM.
For the compound `NC(=O)c1ccn(C(=O)N2CCC3(CCN(Cc4ccc(N5CCCC5)cc4C(F)(F)F)C3)CC2)n1` [Example 195, 1-(2-(4-(pyrrolidin-1-yl)-2-(trifluoromethyl)benzyl)-2,8-diazaspiro[4.5]decane-8-carbonyl)-1H-pyrazole-3-carboxamide], the inhibition at 1 µM at MAGL [1] is over 75%; on FAAH [2], over 75%; on MAGL [3], 0 to 25%; on FAAH [4], over 75%.
`NC(=O)c1ccn(C(=O)N2CC3CN(Cc4ccc(C(F)(F)F)cc4)CC3C2)n1` (stereo not shown) [Example 182, 1-(5-(4-(trifluoromethyl)benzyl)octahydro-pyrrolo[3,4-c]pyrrole-2-carbonyl)-1H-pyrazole-3-carboxamide]: the inhibition at 1 µM on MAGL [1], on FAAH [2], on MAGL [3] and on FAAH [4] was over 75% throughout.
As to `O=C(O)c1ccn(C(=O)N2CCN(Cc3cccc(Oc4ccccc4Cl)c3)CC2)n1` [Example 85, 1-(4-(3-(2-chlorophenoxy)benzyl)piperazine-1-carbonyl)-1H-pyrazole-3-carboxylic acid], the inhibition at 1 µM at MAGL [1] was over 75%; at FAAH [2], 0 to 25%; at MAGL [3] it was over 75%; at FAAH [4] it was 50 to 75%. In addition, the IC50 at FAAH [2] was 1 to 10 µM.
For the compound `O=C(O)c1ccn(C(=O)N2CCN(Cc3ccc(C(F)(F)F)cc3N3CCC(F)(F)CC3)CC2)n1` [Example 108, 1-(4-(2-(4,4-difluoropiperidin-1-yl)-4-(trifluoromethyl)benzyl)piperazine-1-carbonyl)-1H-pyrazole-3-carboxylic acid], the inhibition at 1 µM on MAGL [1] was over 75%; on FAAH [2], 0 to 25%; at MAGL [3], over 75%; at FAAH [4], 0 to 25%.
Consider `O=C(O)c1ccn(C(=O)N2CCC3(CCN(Cc4cc(Cl)cc(Cl)c4)C3)CC2)n1` [Example 162, 1-(2-(3,5-dichlorobenzyl)-2,8-diazaspiro[4.5]decane-8-carbonyl)-1H-pyrazole-3-carboxylic acid], for which the inhibition at 1 µM is over 75% at MAGL [1], over 75% on FAAH [2], over 75% on MAGL [3] and 25 to 50% on FAAH [4]. For the same compound, on FAAH [2], the IC50 lay within 0.1 to 1 µM.

These data come from patent publication US10266497B2 (ABIDE THERAPEUTICS, INC., priority 2017, dated 2019).
